Results taken from paper PMC10765884, “MC180295 is a highly potent and selective CDK9 inhibitor with preclinical in vitro and in vivo efficacy in cancer” (Clinical Epigenetics, 2024).

Columns and labels:
[1] = Drug toxicity: body weights and complete blood counts in tumor-bearing mice; assay type: in vivo; conditions: MV4-11 model, NSG mice, Fig. S4D
[2] = system: MV4-11-luc cells; experiment: MV4-11-luc AML model in NSG mice; conditions: MV4-11-luc in NSG mice, 0.5 mg/kg DAC i.p. daily alone
Protocol: E NSG mice were inoculated (i.p.) with 5 × 10^5 MV4-11-luc cells. Four days later, when substantial tumor burden was evident by bioluminescence imaging, MC180379, MC180380, or vehicle were administered (i.p.) q.o.d at 20 mg/kg. Luciferase expression was quantified and calculated. F Mouse survival in days. […] Significances were calculated using log-rank (Mantel-Cox) or Student’s t tests.
0.5 mg/kg DAC was administered (i.p.) daily. […] B Mouse survival in days. 20 mg/kg MC180295 was administered (i.p.) q.o.d. 0.5 mg/kg DAC was administered (i.p.) daily. C NSG mice were inoculated (i.p.) with 5 × 10^5 MV4-11-luc cells. Four days later, when substantial tumor burden was evident by bioluminescence imaging, MC180295 (20 mg/kg) or vehicle were administered (i.p.) every other day. 0.5 mg/kg DAC was administered (i.p.) daily. Luciferase expression was quantified and calculated. […] 0.5 mg/kg DAC was administered (i.p.) daily. Mouse survival shown in days. Significances were calculated using log-rank (Mantel-Cox) or Student's t tests. Data are shown as means ± SEMs. ***p < 0.001
Both female and male NOD.Cg-Prkdcscid Il2rgtm1Wjl/SzJ (NSG) mice were used for the experiments. Age- and gender-matched mice were randomly assigned to each group. 8–10-week-old NSG mice were tail vein-injected with 5 × 10^5 MV4-11-luc cells. […] Natural death or accumulation of ascites fluid were used as endpoints.

[3] = system: CT26.CL25 cells; experiment: CT26.CL25 colon cancer model in B6 mice with/without CD8 depletion; assay type: in vivo; conditions: CT26.CL25 s.c. in B6 mice, MC180295 20 mg/kg i.p. q.o.d., DAC 0.5 mg/kg i.p. daily
Protocol: Fig. 5 Survival and antitumor effects of MC180295, DAC, or their combination, with/without CD8 + T cells. A 20 mg/kg MC180295 was administered (i.p.) q.o.d. 0.5 mg/kg DAC was administered (i.p.) daily. Mouse survival in days. B Survival of B6 mice, after CD8 depletion, using an anti-CD8 antibody. 20 mg/kg MC180295 was administered (i.p.) q.o.d. 0.5 mg/kg DAC was administered (i.p.) daily. C Antitumor effects of MC180295 with and without CD8 depletion, using an anti-CD8 antibody. B6 mice were inoculated (s.c.) with 5 × 10^5 CT26.CL25 cells. Eight days later, when tumors were palpable, 20 mg/kg MC180295 was administered (i.p.) q.o.d. 0.5 mg/kg DAC was administered (i.p.) daily. Tumor sizes were measured using a caliper and calculated over vehicle. D Antitumor effects of DAC, with and without CD8 depletion, using an anti-CD8 antibody. B6 mice were inoculated (s.c.) with 5 × 10^5 CT26.CL25 cells. Eight days later, when tumors were palpable, 20 mg/kg MC180295 was administered (i.p.) q.o.d. 0.5 mg/kg DAC was administered (i.p.) daily. Tumor sizes were measured using a caliper and calculated over vehicle. E Antitumor effects of DAC + MC180295, with and without CD8 depletion, using an anti-CD8 antibody. B6 mice were inoculated (s.c.) with 5 × 10^5 CT26.CL25 cells. Eight days later, when tumors were palpable, 20 mg/kg MC180295 was administered (i.p.) q.o.d. 0.5 mg/kg DAC was administered (i.p.) daily. Tumor sizes were measured using a caliper and calculated over vehicle. Significances were calculated using log-rank (Mantel-Cox) or Student's T tests. Data shown as means ± SEMs
For the s.c. SW48 model, 2 × 10^6 cells were injected into the flanks of randomly assigned, gender-matched 8–10-week-old NSG mice. 20 mg/kg MC180379, MC180380, or MC180295 was injected (i.p.), every other day, when the tumors were palpable, 11 days after engraftment, until endpoints were met. Mice were sacrificed before tumor volumes exceeded 400 mm^2 (endpoint for this model). For the s.c. HT29 model, 2 × 10^6 cells were injected into the flanks of randomly assigned, gender-matched, 8–10-week-old NSG mice. […]

[4] = target: T1, CDK9 (Homo sapiens, UniProt P50750); parameters: method as in PMID 26083714; conditions: cited from earlier work
T1 construct: purchased Reaction Biology Corp
T1 sequence (P50750 whole entry): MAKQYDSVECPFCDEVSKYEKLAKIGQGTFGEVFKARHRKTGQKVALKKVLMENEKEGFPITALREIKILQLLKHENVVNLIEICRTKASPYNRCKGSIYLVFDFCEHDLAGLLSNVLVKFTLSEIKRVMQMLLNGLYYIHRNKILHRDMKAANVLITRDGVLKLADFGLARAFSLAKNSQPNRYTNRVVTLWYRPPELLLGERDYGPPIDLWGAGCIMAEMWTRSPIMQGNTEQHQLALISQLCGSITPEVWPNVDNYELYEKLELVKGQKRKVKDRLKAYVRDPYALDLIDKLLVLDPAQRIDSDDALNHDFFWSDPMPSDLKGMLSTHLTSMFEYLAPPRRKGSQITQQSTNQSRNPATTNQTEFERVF
T1 sequence (O60563 whole entry partner): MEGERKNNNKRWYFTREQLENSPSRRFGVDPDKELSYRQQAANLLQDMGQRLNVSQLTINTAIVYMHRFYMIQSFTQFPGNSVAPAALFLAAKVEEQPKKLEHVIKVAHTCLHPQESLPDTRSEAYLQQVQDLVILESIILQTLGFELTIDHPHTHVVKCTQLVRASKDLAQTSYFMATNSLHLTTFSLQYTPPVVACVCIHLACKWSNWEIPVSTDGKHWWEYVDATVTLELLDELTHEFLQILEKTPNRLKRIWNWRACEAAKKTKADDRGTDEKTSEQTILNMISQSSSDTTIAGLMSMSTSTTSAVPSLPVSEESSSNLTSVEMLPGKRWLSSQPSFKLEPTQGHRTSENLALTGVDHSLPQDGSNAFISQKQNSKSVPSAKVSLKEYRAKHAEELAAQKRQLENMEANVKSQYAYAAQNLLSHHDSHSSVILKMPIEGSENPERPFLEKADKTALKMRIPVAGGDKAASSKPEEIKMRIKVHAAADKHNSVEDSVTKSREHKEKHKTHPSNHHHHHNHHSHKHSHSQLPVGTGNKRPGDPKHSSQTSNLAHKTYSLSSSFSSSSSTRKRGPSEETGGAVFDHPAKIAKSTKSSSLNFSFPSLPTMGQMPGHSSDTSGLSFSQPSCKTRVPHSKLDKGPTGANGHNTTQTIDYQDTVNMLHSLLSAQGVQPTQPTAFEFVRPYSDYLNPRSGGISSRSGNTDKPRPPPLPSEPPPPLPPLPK

SMILES | body weights [1] | survival [2] | tumor suppression (luciferase) [2] | tumor size [3] | selectivity toward CDK9, compared to CDKs 1, 2, 4, 7, and 8 [4]
Nc1ncn([C@H]2C[C@H](O)[C@@H](CO)O2)c(=O)n1 [DAC, decitabine, reference compound] | did not affect NSG mouse body weights | did not show consistent tumor suppression or a survival benefit | did not show consistent tumor suppression | significantly decrease tumor size, in a CD8 + T cell-dependent manner | 
NC1CCC(Nc2cc(-c3cccc(NCc4cccc(F)c4)n3)c(Cl)cn2)CC1 (centres unmarked) [iCDK9] |  |  |  |  | more than 600 fold
